{"source": "ChEMBL document CHEMBL3638721", "about": "“C-linked hydroxamic acid derivatives useful as antibacterial agents” (2014)"}
{"biological_target": "T1, UDP-3-O-acyl-N-acetylglucosamine deacetylase (Pseudomonas aeruginosa (strain ATCC 15692 / PAO1 / 1C / PRS 101 / LMG12228), UniProt P47205)", "T1 sequence (P47205 whole entry)": "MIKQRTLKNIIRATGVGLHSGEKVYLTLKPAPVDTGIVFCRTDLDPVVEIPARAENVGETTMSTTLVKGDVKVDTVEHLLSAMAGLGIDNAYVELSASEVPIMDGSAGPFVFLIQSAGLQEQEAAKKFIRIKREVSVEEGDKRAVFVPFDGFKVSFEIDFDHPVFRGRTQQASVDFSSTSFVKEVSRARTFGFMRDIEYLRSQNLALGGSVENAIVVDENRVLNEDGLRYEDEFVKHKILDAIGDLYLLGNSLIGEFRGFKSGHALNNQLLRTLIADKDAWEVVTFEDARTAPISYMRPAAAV", "test": "At the end of 1 hour, 5 ul of 1N HCl was added to stop the enzyme reaction; the plates were centrifuged, and then processed with the BioTrove Rapidfire HTMS Mass Spectrometry System.", "units": {"IC50": "nM"}}
{"smiles": "CC(CCc1ccc(OC2CCCCC2)cc1)(C(=O)NO)S(C)(=O)=O", "note": "(configuration not stated)", "IC50": 0.753}
{"smiles": "CCC(CC)COc1ccc(CCC(C)(C(=O)NO)S(C)(=O)=O)cc1", "note": "(configuration not stated)", "IC50": 1.29}
{"smiles": "CCC(c1ccccc1)c1noc(COc2ccc(CCC(C)(C(=O)NO)S(C)(=O)=O)cc2)n1", "note": "(configuration not stated)", "IC50": 20.5}
{"smiles": "CC(CCc1ccc(OCc2nc(-c3cccc(F)c3)no2)cc1)(C(=O)NO)S(C)(=O)=O", "note": "(configuration not stated)", "IC50": 3.81}
{"smiles": "CC(CCc1ccc(OCCCOCc2ccccc2)cc1)(C(=O)NO)S(C)(=O)=O", "note": "(configuration not stated)", "IC50": 21.1}
{"smiles": "Cc1ncccc1COc1ccc(CCC(C)(C(=O)NO)S(C)(=O)=O)cc1", "note": "(configuration not stated)", "IC50": 5.59}
{"smiles": "CC(CCc1ccc(OCC2CC2)cc1)(C(=O)NO)S(C)(=O)=O", "note": "(configuration not stated)", "IC50": 10.5}
{"smiles": "CC(CCc1ccc(OCCOc2ccccc2)cc1)(C(=O)NO)S(C)(=O)=O", "note": "(configuration not stated)", "IC50": 1.52}
{"smiles": "CC(CCc1ccc(OCc2ccc(F)cc2C(F)(F)F)cc1)(C(=O)NO)S(C)(=O)=O", "note": "(configuration not stated)", "IC50": 2.36}
{"smiles": "CC(CCc1ccc(OCc2cccc(Cl)c2)cc1)(C(=O)NO)S(C)(=O)=O", "note": "(configuration not stated)", "IC50": 1.32}
{"smiles": "CCCCCCOc1ccc(CCC(C)(C(=O)NO)S(C)(=O)=O)cc1", "note": "(configuration not stated)", "IC50": 6.31}
{"smiles": "CC(CCc1ccc(OCc2nc(-c3cccc(F)c3F)no2)cc1)(C(=O)NO)S(C)(=O)=O", "note": "(configuration not stated)", "IC50": 5.31}
{"smiles": "Cc1ccc(C)c(COc2ccc(CCC(C)(C(=O)NO)S(C)(=O)=O)cc2)c1", "note": "(configuration not stated)", "IC50": 4.25}
{"smiles": "CC(CCc1ccc(OCc2nc(-c3cc(F)cc(F)c3)no2)cc1)(C(=O)NO)S(C)(=O)=O", "note": "(configuration not stated)", "IC50": 5.81}
{"smiles": "CC(CCc1ccc(OCc2nc(Cc3cc(F)ccc3F)no2)cc1)(C(=O)NO)S(C)(=O)=O", "note": "(configuration not stated)", "IC50": 0.714}
{"smiles": "Cc1cc(C)cc(COc2ccc(CCC(C)(C(=O)NO)S(C)(=O)=O)cc2)c1", "note": "(configuration not stated)", "IC50": 4.5}
{"smiles": "COc1ccc(F)c(-c2noc(COc3ccc(CCC(C)(C(=O)NO)S(C)(=O)=O)cc3)n2)c1", "note": "(configuration not stated)", "IC50": 6.39}
{"smiles": "Cc1cccc(COc2ccc(CCC(C)(C(=O)NO)S(C)(=O)=O)cc2)c1F", "note": "(configuration not stated)", "IC50": 0.525}
{"smiles": "Cc1ccc(COc2ccc(CCC(C)(C(=O)NO)S(C)(=O)=O)cc2)cc1", "note": "(configuration not stated)", "IC50": 1.02}
{"smiles": "CC(CCc1ccc(OCC2CCC2)cc1)(C(=O)NO)S(C)(=O)=O", "note": "(configuration not stated)", "IC50": 3.28}
{"smiles": "CC(C)CCCOc1ccc(CCC(C)(C(=O)NO)S(C)(=O)=O)cc1", "note": "(configuration not stated)", "IC50": 3.22}
{"smiles": "CC(CCc1ccc(OCc2cccc(F)c2)cc1)(C(=O)NO)S(C)(=O)=O", "note": "(configuration not stated)", "IC50": 0.834}
{"smiles": "Cc1ccc(-c2noc(COc3ccc(CCC(C)(C(=O)NO)S(C)(=O)=O)cc3)n2)cc1", "note": "(configuration not stated)", "IC50": 3.48}
{"smiles": "Cc1ccc(COc2ccc(CCC(C)(C(=O)NO)S(C)(=O)=O)cc2)cn1", "note": "(configuration not stated)", "IC50": 5.96}
{"smiles": "CC(CCc1ccc(OCCc2ccccc2)cc1)(C(=O)NO)S(C)(=O)=O", "note": "(configuration not stated)", "IC50": 4.03}
{"smiles": "CC(CCc1ccc(OCc2nc(C3CCCC3)no2)cc1)(C(=O)NO)S(C)(=O)=O", "note": "(configuration not stated)", "IC50": 7.2}
{"smiles": "CC(CCc1ccc(OCc2cccc(OC(F)(F)F)c2)cc1)(C(=O)NO)S(C)(=O)=O", "note": "(configuration not stated)", "IC50": 2.71}
{"smiles": "CC(CCc1ccc(OCc2cc(C#N)ccc2F)cc1)(C(=O)NO)S(C)(=O)=O", "note": "(configuration not stated)", "IC50": 1.36}
{"smiles": "CC(CCc1ccc(OCc2nc3ccccc3s2)cc1)(C(=O)NO)S(C)(=O)=O", "note": "(configuration not stated)", "IC50": 0.651}
{"smiles": "CC(CCc1ccc(OCc2ccc3ccccc3n2)cc1)(C(=O)NO)S(C)(=O)=O", "note": "(configuration not stated)", "IC50": 13.9}
{"smiles": "CC(CCc1ccc(OCCc2ccncc2)cc1)(C(=O)NO)S(C)(=O)=O", "note": "(configuration not stated)", "IC50": 13.7}
{"smiles": "CC(CCc1ccc(OCCC2CCCC2)cc1)(C(=O)NO)S(C)(=O)=O", "note": "(configuration not stated)", "IC50": 1.27}
{"smiles": "CC(CCc1ccc(OCCCC2CCCC2)cc1)(C(=O)NO)S(C)(=O)=O", "note": "(configuration not stated)", "IC50": 2.55}
{"smiles": "CC(CCc1ccc(OCCC2CCCCC2)cc1)(C(=O)NO)S(C)(=O)=O", "note": "(configuration not stated)", "IC50": 2.79}
{"smiles": "CC(CCc1ccc(OCCCC2CCCCC2)cc1)(C(=O)NO)S(C)(=O)=O", "note": "(configuration not stated)", "IC50": 4.56}
{"smiles": "CC(CCc1ccc(OCCCc2ccccc2)cc1)(C(=O)NO)S(C)(=O)=O", "note": "(configuration not stated)", "IC50": 10.2}
{"smiles": "CC(CCc1ccc(OCCC2CC2)cc1)(C(=O)NO)S(C)(=O)=O", "note": "(racemic)", "IC50": 1.36}
